The values below come from patent publication US11866437B1, “1,2-dioxo-2,3-dihydro-1H-pyrrolo[2,3-c]quinoline-7-carboxylic acid compounds as CK2 inhibitors” (KING FAISAL UNIVERSITY, priority 2023, dated 2024).

One test deals with PC3 (prostate). As to the kind of experiment: In vitro cytotoxic activity MTT assay, PC3. In kind it is cell-based. As to conditions: Homo sapiens, PC-3; PC3 cells, exposed for 96 hours; read-out: IC50, 50% inhibition of cell proliferation, PC3 (prostate). The protocol: (§1) Compounds 1-16 were screened for their in vitro cytotoxic activity utilizing a 3-(4,5-dimethyl-thiazol-2-yl)-2,5-diphenyltetrazolium bromide (MTT) assay against selected cancer human cell lines consisting of PC3 (prostate), HCT116 (colon), A375 (melanoma), H1299 (lung), MIAPaCa-2 (pancreas), HL60 (leukemia), MCF7 (breast), MDA-MB-231 (breast) (T. Mosmann, J. Immunol. Meth., 1983, 65, 55-63). The cells were cultured at 37° C. in RMPI1640 medium supplemented with 10% fetal bovine serum, 50 IU/mL penicillin, and 50 μg/mL streptomycin in a 5% CO2 incubator. All cells were sub-cultured 3 times/week by trypsinisation. Viable cells were seeded and allowed to adhere for 12 h before a test drug was added in 96-well plates at an initial density of 1.0×10^5 cells/mL. Tumour cell lines were separately exposed to various concentrations of the tested compounds followed by incubation at a temperature of 37° C. during 96 h inside a medium of fresh RMPI 1640. Cells were subsequently incubated at 37° C. using MTT at 0.5 mg/mL during 4 h. After removal of supernatant, formazan crystals were dissolved in isopropanol and the optical density was measured at 570 nm. CX-4945 was used as a positive control.
Background: Formazan colour is commonly taken as a measure of viable cells.

Another test deals with HCT116 (colon). In words: In vitro cytotoxic activity MTT assay, HCT116. The test is classed as cell-based. Conditions: Homo sapiens, HCT-116; HCT116 cells, exposed for 96 hours; read-out: IC50, 50% inhibition of cell proliferation, HCT116 (colon). How it is done: as §1
Another test concerns A375 (melanoma). As to the kind of experiment: In vitro cytotoxic activity MTT assay, A375. The test is classed as cell-based. Conditions: Homo sapiens, A-375; A375 cells, exposed for 96 hours; read-out: IC50, 50% inhibition of cell proliferation, A375 (melanoma). How it is done: as §1
A further test deals with H1299 (lung). In words: In vitro cytotoxic activity MTT assay, H1299. In kind it is cell-based. As to conditions: Homo sapiens, NCI-H1299; H1299 cells, exposed for 96 hours; read-out: IC50, 50% inhibition of cell proliferation, H1299 (lung). The protocol:
as §1

The next test has as its system MIAPaCa-2 (pancreas). As to the kind of experiment: In vitro cytotoxic activity MTT assay, MIAPaCa-2. In kind it is cell-based. Conditions: Homo sapiens, MIA PaCa-2; MIAPaCa-2 cells, exposed for 96 hours; read-out: IC50, 50% inhibition of cell proliferation, MIAPaCa-2 (pancreas). How it is done: as §1
For another test, the system named is HL60 (leukemia). As to the kind of experiment: In vitro cytotoxic activity MTT assay, HL60. The test is classed as cell-based. Conditions: Homo sapiens, HL-60; HL60 cells, exposed for 96 hours; read-out: IC50, 50% inhibition of cell proliferation, HL60 (leukemia). How it is done:
as §1

The subject of another test is MCF7 (breast). As to the kind of experiment: In vitro cytotoxic activity MTT assay, MCF7. The test is classed as cell-based. As to conditions: Homo sapiens; MCF7 cells, exposed for 96 hours; read-out: IC50, 50% inhibition of cell proliferation, MCF7 (breast). How it is done:
as §1

The test system of a further test is MDA-MB-231 (breast). In words: In vitro cytotoxic activity MTT assay, MDA-MB-231. In kind it is cell-based. As to conditions: Homo sapiens; MDA-MB-231 cells, exposed for 96 hours; read-out: IC50, 50% inhibition of cell proliferation, MDA-MB-231 (breast). How it is done:
as §1

The target of another test is T1, recombinant human CK2 (Homo sapiens, UniProt P68400).
T1 construct: purchased Millipore
T1 sequence (P68400 whole entry): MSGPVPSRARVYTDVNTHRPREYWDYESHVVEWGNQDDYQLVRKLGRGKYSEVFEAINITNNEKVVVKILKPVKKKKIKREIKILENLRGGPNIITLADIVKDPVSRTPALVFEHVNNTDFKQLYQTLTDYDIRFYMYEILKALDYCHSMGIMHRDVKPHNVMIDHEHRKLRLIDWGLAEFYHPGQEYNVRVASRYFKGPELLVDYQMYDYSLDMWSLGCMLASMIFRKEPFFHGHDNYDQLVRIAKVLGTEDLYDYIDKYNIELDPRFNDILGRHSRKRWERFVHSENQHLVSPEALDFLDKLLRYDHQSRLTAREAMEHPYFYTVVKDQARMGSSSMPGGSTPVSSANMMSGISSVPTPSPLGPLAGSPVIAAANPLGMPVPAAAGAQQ
T1 sequence (P67870 whole entry partner): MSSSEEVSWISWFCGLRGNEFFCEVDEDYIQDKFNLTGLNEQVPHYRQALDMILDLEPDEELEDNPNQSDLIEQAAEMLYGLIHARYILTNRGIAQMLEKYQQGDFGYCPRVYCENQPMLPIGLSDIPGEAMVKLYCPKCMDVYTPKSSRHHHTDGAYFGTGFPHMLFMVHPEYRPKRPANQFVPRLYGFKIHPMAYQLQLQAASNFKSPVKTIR
In words: CK2 Kinase Assay (33P-ATP, substrate peptide RRRDDDSDDD). As to conditions: final ATP concentration 15 μM, 10 min at 30° C.; read-out: protein kinase CK2 IC50. In kind it is biochemical. The protocol:
CK2 Kinase Assay was conducted using the protocol as described in Pierre F. et al; J. Med. Chem. 2011, 54, 635-654. The tested compounds in aqueous solution were added at a volume of 10 μL to a reaction mixture comprising 10 μL of assay dilution buffer (ADB; 20 mM MOPS, pH 7.2, 25 mM β-glycerol phosphate, 5 mM EGTA, 1 mM sodium orthovanadate, and 1 mM dithiothreitol), 10 μL of substrate peptide (RRRDDDSDDD, dissolved in ADB at a concentration of 1 mM), 10 μL of recombinant human CK2 (RR-holoenzyme, 25 ng dissolved in ADB; Millipore). Reactions were initiated by the addition of 10 μL of ATP solution (90% 75 mMMgCl2, 75 μM ATP (final ATP concentration:15 μM) dissolved in ADB; 10% [γ-33P] ATP (stock 1 mCi/100 μL; 3000 Ci/mmol (Perkin-Elmer) and maintained for 10 min at 30° C. The reactions were quenched with 100 μL of 0.75% phosphoric acid and then transferred to and filtered through a phosphor cellulose filter plate (Millipore). After washing each well five times with 0.75% phosphoric acid, the plate was dried under vacuum for 5 min and, following the addition of 15 μL of scintillation fluid to each well, the residual radioactivity was measured using a Wallac […] counter. The IC50 values were derived from eight concentrations of test inhibitors.

In the case of `O=C1Nc2c(Nc3cccc(Cl)c3)nc3cc(C(=O)O)ccc3c2C1=O` [Compound 1, 4-((3-chlorophenyl)amino)-1,2-dioxo-2,3-dihydro-1H-pyrrolo[2,3-c]quinoline-7-carboxylic acid], the IC50 in the test on PC3 (prostate) is 900 nM; in the test with HCT116 (colon) it was 1100 nM; with A375 (melanoma), 2300 nM; with H1299 (lung), 1600 nM; in the test with MIAPaCa-2 (pancreas) it was 1500 nM; in the test with HL60 (leukemia) it was 2900 nM. Moreover, the figures for the IC50 in the test with MCF7 (breast), in the test with MDA-MB-231 (breast) and on recombinant human CK2 were 5100 nM, 3800 nM and 19 nM, respectively.
